Results as given in patent US20250214942A1, “INHIBITORS OF RECEPTOR INTERACTING PROTEIN KINASE I FOR THE TREATMENT OF DISEASE” (Board of Regents, The University of Texas System, priority 2019, published 2025).

How the values were obtained:
RIPK1 = RIPK1 (Homo sapiens (Human), UniProt Q13546); test: ADP-Glo kinase assay (RIPK1 activity, conversion of ATP to ADP); format: biochemical; conditions: 5 nM RIPK1, 50 μM ATP, 6 h reaction; read-out: RIPK1 Enzyme Avg IC50
In short: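 RIPK1 (5 nM final) was preincubated 10 min at rt with 1:3-diluted compounds in HEPES pH 7.5/MgCl2/DTT/BSA/CHAPS buffer. ATP (50 μM final) was then added for 6 h, and ADP formed was read by ADP-Glo luminescence. IC50 values came from four-parameter logistic fitting.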

[1] = system: human monocytic cell line U937; test: Human U937 cellular necroptosis assay (TNFalpha + z-VAD-FMK, Cell Titer-Glo viability); format: cell-based; conditions: Homo sapiens, U-937, 22 h, U937 cells, 25 ng/mL human TNFalpha + 25 μM z-VAD-FMK, read-out: hU937 Avg IC50
In short: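 Readout is CellTiter-Glo 2.0 luminescence after 22 h at 37° C with compound, in cells triggered by human TNFalpha (25 ng/mL) and z-VAD-FMK (25 μM) in phenol red-free RPMI/10% FBS. Values are run-averaged IC50s from a four-parameter logistic curve.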

Chain of RIPK1 (Q13546 1-327): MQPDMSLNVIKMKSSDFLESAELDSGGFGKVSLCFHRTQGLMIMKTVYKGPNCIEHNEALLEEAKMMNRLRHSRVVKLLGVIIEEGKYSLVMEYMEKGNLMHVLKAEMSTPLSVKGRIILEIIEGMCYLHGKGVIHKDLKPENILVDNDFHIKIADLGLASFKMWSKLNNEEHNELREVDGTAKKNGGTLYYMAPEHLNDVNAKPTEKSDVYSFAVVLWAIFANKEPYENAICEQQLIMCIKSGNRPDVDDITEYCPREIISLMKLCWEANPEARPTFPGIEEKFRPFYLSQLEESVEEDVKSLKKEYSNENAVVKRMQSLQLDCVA

Row | IC50 (RIPK1) [nM] | Compound | IC50 [1] [nM]
1 | 20 | O=C(N1N=CCC1c1cc(F)cc(F)c1)C12CC(Cn3ncc4cncc(Cl)c43)(C1)C2 (stereo not drawn) [Example 68, (3-((7-chloro-1H-pyrazolo-[4,3-c]pyridin-1-yl)methyl)-bicyclo[1.1.1]pentan-1-yl)(5-(3,5-difluorophenyl)-4,5-dihydro-1H-pyrazol-1-yl)methanone] | 34
2 | 22 | O=C(N1N=CCC1c1cc(F)cc(F)c1)C12CC(Cn3ncc4cccc(Cl)c43)(C1)C2 (stereo not drawn) [Example 69, (3-((7-chloro-1H-indazol-1-yl)methyl)bicyclo[1.1.1]-pentan-1-yl)(5-(3,5-difluoro-phenyl)-4,5-dihydro-1H-pyrazol-1-yl)methanone] | 44
3 | 34 | O=C(N1N=CCC1c1cc(F)cc(F)c1)C12CC(Cn3ncc4ccc(F)cc43)(C1)C2 (stereo not drawn) [Example 70, (5-(3,5-difluorophenyl)-4,5-dihydro-1H-pyrazol-1-yl)(3-((6-fluoro-1H-indazol-1-yl)-methyl)bicyclo[1.1.1]pentan-1-yl)methanone] | 26
4 | 39 | N#Cc1cnn(CC23CC(C(=O)N4N=CCC4c4cc(F)cc(F)c4)(C2)C3)c1 (stereo not drawn) [Example 71, 1-((3-(5-(3,5-difluorophenyl)-4,5-dihydro-1H-pyrazole-1-carbonyl)bicyclo[1.1.1]-pentan-1-yl)methyl)-1H-pyrazole-4-carbonitrile] | 134
5 | 78 | O=C(N1N=CCC1c1cc(F)cc(F)c1)C12CC(Cn3cc(C(F)(F)F)cn3)(C1)C2 (stereo not drawn) [Example 72, (5-(3,5-difluorophenyl)-4,5-dihydro-1H-pyrazol-1-yl)(3-((4-(trifluoromethyl)-1H-pyrazol-1-yl)methyl)bicyclo-[1.1.1]pentan-1-yl)methanone] | 98
6 | 111 | COc1ccc2cnn(CC34CC(C(=O)N5N=CCC5c5cc(F)cc(F)c5)(C3)C4)c2c1 (stereo not drawn) [Example 73, (5-(3,5-difluorophenyl)-4,5-dihydro-1H-pyrazol-1-yl)(3-((6-methoxy-1H-indazol-1-yl)methyl)bicyclo[1.1.1]-pentan-1-yl)methanone] | 527
7 | 124 | Cc1cnn(CC23CC(C(=O)N4N=CCC4c4cc(F)cc(F)c4)(C2)C3)c1 (stereo not drawn) [Example 74, (5-(3,5-difluorophenyl)-4,5-dihydro-1H-pyrazol-1-yl)(3-((4-methyl-1H-pyrazol-1-yl)-methyl)bicyclo[1.1.1]pentan-1-yl)methanone] | 514
8 | 11 | O=C(N1N=CCC1c1ccccc1)C12CC(Cn3ncc4c(F)cccc43)(C1)C2 (stereo not drawn) [Example 81, (3-((4-fluoro-1H-indazol-1-yl)methyl)bicyclo[1.1.1]-pentan-1-yl)(5-phenyl-4,5-dihydro-1H-pyrazol-1-yl)-methanone] | 12
9 | 11 | N#Cc1cccc(C2CC=NN2C(=O)C23CC(Cn4ncc5c(F)cccc54)(C2)C3)c1 (stereo not drawn) [Example 82, 3-(1-(3-((4-fluoro-1H-indazol-1-yl)methyl)bicyclo-[1.1.1]pentane-1-carbonyl)-4,5-dihydro-1H-pyrazol-5-yl)benzonitrile] | 31
10 | 16 | O=C(N1CC(F)CC1c1cccc(F)c1)C12CC(Cn3ncc4c(F)cccc43)(C1)C2 (stereo not drawn) [Example 83, (3-((4-fluoro-1H-indazol-1-yl)methyl)bicyclo[1.1.1]-pentan-1-yl)(4-fluoro-2-(3-fluorophenyl)pyrrolidin-1-yl)methanone] | 67
11 | 22 | O=C(N1N=CCC1c1cc(F)ccc1F)C12CC(Cn3ncc4c(F)cccc43)(C1)C2 (stereo not drawn) [Example 84, (5-(2,5-difluorophenyl)-4,5-dihydro-1H-pyrazol-1-yl)(3-((4-fluoro-1H-indazol-1-yl)-methyl)bicyclo[1.1.1]pentan-1-yl)methanone] | 3
12 | 18 | O=C(N1N=CCC1c1cc(F)cc(F)c1)C12CC(Cn3nc4ccc(F)cc4n3)(C1)C2 (stereo not drawn) [Example 85, (5-(3,5-difluorophenyl)-4,5-dihydro-1H-pyrazol-1-yl)(3-((5-fluoro-2H-benzo[d]-[1,2,3]triazol-2-yl)methyl)-bicyclo[1.1.1]pentan-1-yl)-methanone] | 24
13 | 21 | O=C(N1N=CCC1c1cc(F)cc(F)c1)C12CC(Cn3ncc4ccncc43)(C1)C2 (stereo not drawn) [Example 87, (3-((1H-pyrazolo[3,4-c]-pyridin-1-yl)methyl)bicyclo-[1.1.1]pentan-1-yl)(5-(3,5-difluorophenyl)-4,5-dihydro-1H-pyrazol-1-yl)methanone] | 33
14 | 24 | O=C(N1N=CCC1c1cc(F)cc(F)c1)C12CC(Cn3cc4ccncc4n3)(C1)C2 (stereo not drawn) [Example 88, (3-((2H-pyrazolo[3,4-c]-pyridin-2-yl)methyl)bicyclo-[1.1.1]pentan-1-yl)(5-(3,5-difluorophenyl)-4,5-dihydro-1H-pyrazol-1-yl)methanone] | 94
15 | 25 | O=C(N1N=CCC1c1cc(F)cc(F)c1)C12CC(Cn3ncc4cccnc43)(C1)C2 (stereo not drawn) [Example 89, (3-((1H-pyrazolo[3,4-b]-pyridin-1-yl)methyl)bicyclo-[1.1.1]pentan-1-yl)(5-(3,5-difluorophenyl)-4,5-dihydro-1H-pyrazol-1-yl)methanone] | 137
16 | 56 | N#Cc1cc(OCC23CC(C(=O)N4CC(F)CC4c4cccc(F)c4)(C2)C3)ncn1 (stereo not drawn) [Example 92, 6-((3-(4-fluoro-2-(3-fluorophenyl)pyrrolidine-1-carbonyl)bicyclo[1.1.1]-pentan-1-yl)methoxy)-pyrimidine-4-carbonitrile] | 518
17 | 79 | Cc1ncnc(OCC23CC(C(=O)N4CC(F)CC4c4cccc(F)c4)(C2)C3)c1F (stereo not drawn) [Example 93, (4-fluoro-2-(3-fluorophenyl)-pyrrolidin-1-yl)(3-(((5-fluoro-6-methylpyrimidin-4-yl)oxy)methyl)bicyclo[1.1.1]-pentan-1-yl)methanone] | 398
18 | 109 | N#Cc1cccc(OCC23CC(C(=O)N4CC(F)CC4c4cccc(F)c4)(C2)C3)n1 (stereo not drawn) [Example 94, 6-((3-(4-fluoro-2-(3-fluoro-phenyl)pyrrolidine-1-carbonyl)bicyclo[1.1.1]-pentan-1-yl)methoxy)-picolinonitrile] | 994
19 | 486 | O=C(N1CC(F)CC1c1cccc(F)c1)C12CC(COc3nccc(Cl)n3)(C1)C2 (stereo not drawn) [Example 101, (3-(((4-chloropyrimidin-2-yl)oxy)methyl)bicyclo[1.1.1]-pentan-1-yl)(4-fluoro-2-(3-fluorophenyl)pyrrolidin-1-yl)methanone] | 1340
20 | 371 | O=C(N1CC(F)CC1c1cccc(F)c1)C12CC(Cn3cc4cc(F)ccc4n3)(C1)C2 (stereo not drawn) [Example 106, (4-fluoro-2-(3-fluorophenyl)-pyrrolidin-1-yl)(3-((5-fluoro-2H-indazol-2-yl)methyl)-bicyclo[1.1.1]pentan-1-yl)methanone] | 1470
21 | 42 | O=C(N1N=CCC1c1cc(F)cc(F)c1)C12CC(Cn3c(=O)[nH]c4ccccc43)(C1)C2 (stereo not drawn) [Example 109, 1-((3-(5-(3,5-difluorophenyl)-4.5-dihydro-1H-pyrazole-1-carbonyl)bicyclo[1.1.1]-pentan-1-yl)methyl)-1,3-dihydro-2H-benzo[d]-imidazol-2-one] | 470
22 | 134 | Cn1c(=O)n(CC23CC(C(=O)N4N=CCC4c4cc(F)cc(F)c4)(C2)C3)c2ccccc21 (stereo not drawn) [Example 110, 1-((3-(5-(3,5-difluorophenyl)-4,5-dihydro-1H-pyrazole-1-carbonyl)bicyclo[1.1.1]-pentan-1-yl)methyl)-3-methyl-1,3-dihydro-2H-benzo[d]imidazol-2-one] | 734
23 | 43 | O=C(N1N=CCC1c1cc(F)cc(F)c1)C12CC(Cn3cc(-c4ccccn4)cn3)(C1)C2 (stereo not drawn) [Example 111, (5-(3,5-difluorophenyl)-4,5-dihydro-1H-pyrazol-1-yl)(3-((4-(pyridin-2-yl)-1H-pyrazol-1-yl)methyl)-bicyclo[1.1.1]pentan-1-yl)methanone] | 249
24 | 73 | O=C(N1N=CCC1c1cc(F)cc(F)c1)C12CC(Cn3cc(-c4cnccn4)cn3)(C1)C2 (stereo not drawn) [Example 112, (5-(3,5-difluorophenyl)-4,5-dihydro-1H-pyrazol-1-yl)(3-((4-(pyrazin-2-yl)-1H-pyrazol-1-yl)methyl)-bicyclo[1.1.1]pentan-1-yl)-methanone] | 285
25 | 156 | N#Cc1cn(CC23CC(C(=O)N4N=CCC4c4cc(F)cc(F)c4)(C2)C3)cn1 (stereo not drawn) [Example 124, 1-((3-(5-(3,5-difluorophenyl)-4,5-dihydro-1H-pyrazole-1-carbonyl)bicyclo[1.1.1]-pentan-1-yl)methyl)-1H-imidazole-4-carbonitrile] | 751
26 | 49 | N#Cc1cc(OCC23CC(C(=O)N4N=CCC4c4cncc(F)c4)(C2)C3)ncn1 (stereo not drawn) [Example 126, 6-((3-(5-(5-fluoropyridin-3-yl)-4,5-dihydro-1H-pyrazole-1-carbonyl)bicyclo[1.1.1]-pentan-1-yl)-methoxy)pyrimidine-4-carbonitrile] | 440
27 | 17 | N#Cc1ccc2c(cnn2CC23CC(C(=O)N4N=CCC4c4cncc(F)c4)(C2)C3)c1 (stereo not drawn) [Example 128, 1-((3-(5-(5-fluoropyridin-3-yl)-4,5-dihydro-1H-pyrazole-1-carbonyl)bicyclo[1.1.1]-pentan-1-yl)methyl)-1H-indazole-5-carbonitrile] | 48
